From US9296688B2, “Carbohydrate-selective receptors” (New York University, priority 2012, dated 2016)
Several values for one entry are separate records, joined by “and”; a condition that tells them apart may be missing. Identical values can stand only once. Like-named read-outs stand apart in the source and are kept apart here.

What was measured:
[1] = CDCl3, 25° C., extrapolated from a Van't Hoff plot
Protocol: (§1) ^1H NMR titrations were performed in CDCl3 at a field strength of either 500, 800, or 900 MHz at 25, 20, 15, 10, or 5° C. The ^1H NMR resonances corresponding to both pyranoside and host were assigned through ^1H-^1H COSY and NOESY experiments.
(§2) This is the result of an exchange process involving 1 (H) and pyranoside (G) equilibria products exchanging fast on the NMR timescale, resulting in the averaging of chemical shifts of protons in differing chemical environments.
(§3) Fittings were conducted in Microsoft Excel 2007 using the Solver feature. […]
Thus, the binding of pyranosides was first studied under conditions where receptor 1 was maintained at a low concentration (<70 μM) to minimize the contribution of the Kdimer and K3 equilibria (FIG. 2). Once the values of K1 and K2 were determined, their values were held invariant in subsequent peak shift fittings, which facilitated the quantification of the other Kas.
(§4) For each non-mannoside, K1 was determined by subjecting all resolvable resonances from each titration at 25° C. to a global nonlinear fitting analysis with a model combining K1 and Kdimer (13.0±0.5 M^−1), which was measured independently by ^1H NMR dilution experiments (Table 1). […]

[2] = 1/BC50 plot, pyranoside 0 to 10.0 mM
Protocol: as §1, §2, §3
Thus, the binding of pyranosides was first studied under conditions where receptor 1 was maintained at a low concentration (<70 μM) to minimize the contribution of the Kdimer and K3 equilibria (FIG. 2). Once the values of K1 and K2 were determined, their values were held invariant in subsequent peak shift fittings, which facilitated the quantification of the other Kas. […]
as §4

[3] = Method: Note that all equilibria present in a receptor/pyranoside mixture contribute toward the calculated BC50 value, and a higher 1/BC50 value is indicative of a higher overall binding strength.
As each 1/BC50 plot is a measure of affinity between 1 and pyranosides, comparing the plots of two or more pyranosides provides a means of assessing selectivity.
The BC50^0 values of the pyranosides for receptor 1 were determined using Eq. 17.

Remark: listed apart in the source
[4] = not given; remark: listed apart in the source
[5] = 1:2 binding (K2), CDCl3, Van't Hoff

SMILES: c1c[nH]c(CNCc2cc(CNCc3ccc[nH]3)cc(-c3cc(CNCc4ccc[nH]4)cc(CNCc4ccc[nH]4)c3)c2)c1 [Compound 1, N,N′,N′N″N′″-([1,1′-biphenyl]-3,3′,5,5′-tetrayltetrakis(methylene))tetrakis (1-(1H-pyrrol-2-yl)methanamine)]
- K3 (2:1 receptor:pyranoside binding) [1]: 3 M⁻¹
- concentration of α-Man where the maximum 1/BC50 value (maximum selectivity) is obtained [2]: 0.8 mM
- binding order ([3]; higher pyranoside concentrations (>1.0 mM)): α-Man>β-Man>β-Glc
- binding order ([3]; pyranoside from 0.3 mM to 1.0 mM): α-Man>β-Glc>β-Man
- Kdimer (CDCl3, 5° C.): 24.2 ± 0.5 M⁻¹
- Kdimer (CDCl3, 10° C.): 20.8 M⁻¹
- Kdimer (CDCl3, 15° C.): 16.9 M⁻¹
- Kdimer (CDCl3, 20° C.): 15.3 M⁻¹
- Kdimer (CDCl3, 25° C.): 13.0 M⁻¹ and 13.0 ± 0.5 M⁻¹
- ΔH° [4, 5]: -20.2 ± 1.2 kcal/mol
- ΔS° [4, 5]: −52±4 e.u.
- interaction parameter α for K3 (K3 / reference Ka) ([4]; 2:1 binding, 25° C.): at least 2.7
- approximate baseline (reference) Ka, 1:1 binding of 1 to the β-face of β-Man ([4]; from NMR detection limit, no NOEs on β-face, 0.5 mM 1, 1.0 mM β-Man, 25° C.): ≤ 104 M⁻¹
